Patent publication US20260234123A1, “Inhibitors of NLRP3” (Mwyngil Therapeutics, Inc., priority 2023, published 2026)
Like-named read-outs stand apart in the source and are kept apart here.

System: IL1b release THP-1
Assay: IL1b release THP-1 (ELISA)
Type: cell-based
Conditions: Homo sapiens
Experimental: Example A. Primary Assays Used to Determine IL1b Release THP-1 (ELISA)
• Microbiological safety cabinet, classII (NuAire, USA) • CO2 incubator (VWR Science, USA) • Countess Automated Cell Counter (Invitrogen, USA, cat. number C10227) • Centrifuge CM 6M (Elmi, Latvia) • Serological pipettes 2, 5, 10, 25, 50, 100 ml sterile (Santa Cruz Biotechnology, Inc., USA, sc-200277, sc-200279, sc-200281, sc-200283, Sc-213234, sc-516777) • Single and multichannel pipettes 0.2-10 μL, 50-1200 μL (Eppendorf AG-Hamburg, Germany) • 50 mL PP sterile tubes (Greiner, cat. Number 210261).
• RPMI-1640 (PanEco, C330) • Sodium pyruvate (Paneco, cat. number Φ023) • Non-Essential amino acids 50× (Paneco, Φ116) • Essential amino acids 50× (Paneco, Φ115/50) • FBS (Hyclone Laboratories Inc, USA, SV30160.03) • Antibiotic-antimycotic (Gibco, USA, 15240-062) • 2-mercaptoethanol 1000×55 mM (Gibco, USA, 21985-023) • LPS-EB ultrapure (invivogen, cat. number tlrl-3pelps) • Nigericin (Sigma, cat. number N7143) • ELISA kit, IL-1beta (Cat #A-8766, Interleukin-1 beta-EIA-BEST, Vector Best). LPS Preparation (5 mg/ml): • 1. Add 1 ml of endotoxin-free water according manufacturer's protocol • 2. Vortex until complete solubilization • 3. Aliquote and store at […] for long term storage.
• 1. Add methanol to 10 mg of powder to produce the 10 mM Nigericin solution • 2. Vortex until complete solubilization • 3. Store at 4° C.
THP-1 cells were propagated in RPMI-1640 (10% FBS, Antibiotic-antimycotic 1×, non-Essential amino acids 1×, Essential amino acids 1×, Sodium pyruvate 2×, 2-mercaptoethanol 0.05 mM) at 37° C. and at 5% CO2 in an incubator.
• 1. THP-1 cells were spined at 100 g for 5 min in 50 ml tube. • 2. THP-1 cells were resuspended in warm culture medium (w/o FBS, w/o Antibiotic-antimycotic, non-Essential amino acids 1×, Essential amino acids 1×, Sodium pyruvate 2×) to the concentration 1,3×10^6 cells. • 3. THP-1 cells were primed in tube with 1 μg/ml of LPS for 4 h at 37° C. and at 5% CO2 in an incubator. • 4. THP-1 cells were stimulated with 10 μM of Nigericin (Cat #N7143-10 MG, Sigma Aldrich) for 2 h at 37° C. and at 5% CO2 in an incubator. • 5. After the full activation, the supernatant was collected and the levels of IL-1β were assessed via ELISA according manufacturer instructions (Cat #A-8766, Vector Best).
The average EC50 values are shown in Table A, wherein “A” corresponds to EC50: A≤0.5 μM, “B” corresponds to 0.5 μM<EC50≤1.0 μM, “C” 1.0 μM<EC50≤5.0 μM, “D” corresponds to 5.0 μM<EC50≤30 μM and “E” corresponds to EC50>30 μM.

[1] = average EC50, THP-1 cells primed with 1 μg/ml LPS 4 h, stimulated with 10 μM Nigericin 2 h, IL-1β in supernatant by ELISA, read-out: THP 1 IL 1b, EC50
[2] = THP-1, read-out: THP 1 IL 1b, EC50, μM

Compound	EC50 [1] [µM]	EC50 [2] [µM]
Cc1cc(C(F)(F)F)cc(NS(C)(=O)=O)c1-c1ccc(N[C@@H]2CCCN(C)C2)nn1 [Compound 1, (R)—N-(3-methyl-2-(6-((1-methylpiperidin-3-yl)amino)pyridazin-3-yl)-5-(trifluoromethyl)phenyl) methanesulfonamide]	1 to 5	–
CCN1CCC[C@@H](Nc2ccc(-c3c(C)cc(C(F)(F)F)cc3NS(C)(=O)=O)nn2)C1 [Compound 2, (R)—N-(2-(6-((1-Ethylpiperidin-3-yl)amino)pyridazin-3-yl)-3-methyl-5-(trifluoromethyl)phenyl) methanesulfonamide]	0.5 to 1	–
Cc1cc(N[C@@H]2CCCN(C)C2)nnc1-c1ccc(C(F)(F)F)cc1NS(C)(=O)=O [Compound 4, (R)—N-(2-(4-Methyl-6-((1-methylpiperidin-3-yl)amino)pyridazin-3-yl)-5-(trifluoromethyl)phenyl) methanesulfonamide]	0.5 to 1	–
CCN1CCC[C@@H](Nc2cc(C)c(-c3ccc(C(F)(F)F)cc3NS(C)(=O)=O)nn2)C1 [Compound 5, (R)—N-(2-(6-((1-Ethylpiperidin-3-yl)amino)-4-methylpyridazin-3-yl)-5-(trifluoromethyl)phenyl) methanesulfonamide]	< 0.5	–
Cc1cc(N[C@@H]2CCCN(CCO)C2)nnc1-c1ccc(C(F)(F)F)cc1NS(C)(=O)=O [Compound 6, (R)—N-(2-(6-((1-(2-Hydroxyethyl)piperidin-3-yl)amino)-4-methylpyridazin-3-yl)-5-(trifluoromethyl)phenyl) methanesulfonamide]	0.5 to 1	–
Cc1cc(-c2ccc(C(F)(F)F)cc2NS(C)(=O)=O)nnc1N[C@@H]1CCCN(C)C1 [Compound 7, (R)—N-(2-(5-Methyl-6-((1-methylpiperidin-3-yl)amino)pyridazin-3-yl)-5-(trifluoromethyl)phenyl) methanesulfonamide]	< 0.5	–
CCN1CCC[C@@H](Nc2nnc(-c3ccc(C(F)(F)F)cc3NS(C)(=O)=O)cc2C)C1 [Compound 8, (R)—N-(2-(6-((1-Ethylpiperidin-3-yl)amino)-5-methylpyridazin-3-yl)-5-(trifluoromethyl)phenyl) methanesulfonamide]	< 0.5	–
Cc1cc(-c2ccc(C(F)(F)F)cc2NS(C)(=O)=O)nnc1N[C@@H]1CCCN(CCO)C1 [Compound 9, (R)—N-(2-(6-((1-(2-Hydroxyethyl)piperidin-3-yl)amino)-5-methylpyridazin-3-yl)-5-(trifluoromethyl)phenyl) methanesulfonamide]	0.5 to 1	–
Cc1cc(N[C@@H]2CCCN(C)C2)nnc1-c1ccc(C(F)(F)F)c2c1NS(=O)(=O)N2 [Compound 10, (R)-4-(4-Methyl-6-((1-methylpiperidin-3-yl)amino)pyridazin-3-yl)-7-(trifluoromethyl)-1,3-dihydrobenzo[c][1,2,5]thiadiazole 2,2-dioxide]	5 to 30	–
Cc1cc(N[C@@H]2CCCN(C)C2)nnc1-c1ccc(C(F)(F)F)c2cn[nH]c12 [Compound 14, (R)-5-Methyl-N-(1-methylpiperidin-3-yl)-6-(4-(trifluoromethyl)-1H-indazol-7-yl)pyridazin-3-amine]	1 to 5	–
CCN1CCC[C@@H](Nc2cc(C)c(-c3ccc(C(F)(F)F)c4cn[nH]c34)nn2)C1 [Compound 15, (R)—N-(1-Ethylpiperidin-3-yl)-5-methyl-6-(4-(trifluoromethyl)-1H-indazol-7-yl)pyridazin-3-amine]	1 to 5	–
Cc1cc(N[C@@H]2CCCN(CCO)C2)nnc1-c1ccc(C(F)(F)F)c2cn[nH]c12 [Compound 16, (R)-2-(3-((5-Methyl-6-(4-(trifluoromethyl)-1H-indazol-7-yl)pyridazin-3-yl)amino)piperidin-1-yl) ethan-1-ol]	1 to 5	–
Cc1cc(-c2ccc(C(F)(F)F)c3cn[nH]c23)nnc1N[C@@H]1CCCN(C)C1 [Compound 17, (R)-4-Methyl-N-(1-methylpiperidin-3-yl)-6-(4-(trifluoromethyl)-1H-indazol-7-yl)pyridazin-3-amine]	5 to 30	–
CCN1CCC[C@@H](Nc2nnc(-c3ccc(C(F)(F)F)c4cn[nH]c34)cc2C)C1 [Compound 18, (R)—N-(1-ethylpiperidin-3-yl)-4-methyl-6-(4-(trifluoromethyl)-1H-indazol-7-yl)pyridazin-3-amine]	> 30	–
Cc1cc(-c2ccc(C(F)(F)F)c3cn[nH]c23)nnc1N[C@@H]1CCCN(CCO)C1 [Compound 19, 2-[(3R)-3-[[4-methyl-6-[4-(trifluoromethyl)-1H-indazol-7-yl]pyridazin-3-yl]amino]-1-piperidyl]ethanol]	> 30	–
Cc1cc(N[C@@H]2CCCN(C)C2)nnc1-c1ccc(C(F)(F)F)c2nn[nH]c12 [Compound 20, (R)-5-Methyl-N-(1-methylpiperidin-3-yl)-6-(4-(trifluoromethyl)-1H-benzo[d][1,2,3]triazol-7-yl)pyridazin-3-amine]	> 30	–
Cc1cc(-c2ccc(C(F)(F)F)c3nn[nH]c23)nnc1N[C@@H]1CCCN(C)C1 [Compound 21, 4-methyl-N-[(3R)-1-methyl-3-piperidyl]-6-[7-(trifluoromethyl)-3H-benzotriazol-4-yl]pyridazin-3-amine]	5 to 30	–
Cc1c(N[C@@H]2CCCN(C)C2)nnc(-c2ccc(C(F)(F)F)c3nn[nH]c23)c1C [Compound 22, (R)-4,5-dimethyl-N-(1-methylpiperidin-3-yl)-6-(4-(trifluoromethyl)-1H-benzo[d][1,2,3]triazol-7-yl)pyridazin-3-amine]	5 to 30	–
CN1CCC[C@@H](Nc2cc(C(F)(F)F)c(-c3ccc(C(F)(F)F)c4nn[nH]c34)nn2)C1 [Compound 23]	> 30	–
CN1CCC[C@@H](Nc2nnc(-c3ccc(C(F)(F)F)c4nn[nH]c34)cc2C(F)(F)F)C1 [Compound 24]	> 30	–
Cc1cc(-c2ccc(C(F)(F)F)cc2NS(C)(=O)=O)nnc1N[C@@H]1CCCN(C(C)C)C1 [Compound 25, (R)—N-(2-(6-((1-Isopropylpiperidin-3-yl)amino)-5-methylpyridazin-3-yl)-5-(trifluoromethyl)phenyl) methanesulfonamide]	–	< 0.5
Cc1cc(-c2ccc(C(F)(F)F)cc2NS(C)(=O)=O)nnc1N[C@@H]1CCCN(C2CCCC2)C1 [Compound 26, (R)—N-(2-(6-((1-Cyclopentylpiperidin-3-yl)amino)-5-methylpyridazin-3-yl)-5-(trifluoromethyl)phenyl) methanesulfonamide]	< 0.5	–
Cc1cc(N[C@@H]2CCCN(C(C)C)C2)nnc1-c1ccc(C(F)(F)F)cc1NS(C)(=O)=O [Compound 27]	< 0.5	–
CCN1CCC[C@@H](Nc2nnc(-c3ccc(C(F)(F)F)cc3NS(C)(=O)=O)cc2C2CC2)C1 [Compound 28, (R)—N-(2-(5-Cyclopropyl-6-((1-ethylpiperidin-3-yl)amino)pyridazin-3-yl)-5-(trifluoromethyl)phenyl) methane-sulfonamide]	< 0.5	–
Cc1cc(-c2ccc(C(F)(F)F)cc2NC(=O)C(C)C)nnc1N[C@@H]1CCCN(C(C)C)C1 [Compound 29, N-[2-[6-[[(3R)-1-isopropyl-3-piperidyl]amino]-5-methyl-pyridazin-3-yl]-5-(trifluoromethyl)phenyl]-2-methyl-propanamide]	1 to 5	–
CCN1CCC[C@@H](Nc2nnc(-c3ccc(C(F)(F)F)cc3NS(C)(=O)=O)c3c2C2CCC3CC2)C1 [Compound 30, (R)—N-(2-(4-((1-Ethylpiperidin-3-yl)amino)-5,6,7,8-tetrahydro-5,8-ethanophthalazin-1-yl)-5-(trifluoromethyl)phenyl) methanesulfonamide]	< 0.5	–
Cc1cc(-c2ccc(C(F)(F)F)cc2NS(C)(=O)=O)nnc1N[C@@H]1CCCN(C2CCC2)C1 [Compound 31, (R)—N-(2-(6-((1-Cyclobutylpiperidin-3-yl)amino)-5-methylpyridazin-3-yl)-5-(trifluoromethyl)phenyl) methanesulfonamide]	–	< 0.5
